Results as given in patent US20190307783A1, “USE OF ANTIVIRALS TO INHIBIT PROTOZOAN VIRUSES” (priority 2016, published 2019).
Where two headings read alike, the source gives them in different places.

Columns and labels:
L. guyanensis (LgyLRV1+) = assay: Drug-inhibition test: growth of LgyLRV1+ parasites; format: cell-based, Leishmania guyanensis; conditions: for Effect on L. guyanensis growth, in words: screen at 100 μM or maximum concentration permitted by solubility, 2 days
Description: These compounds were examined for their ability to inhibit the growth of LgyLRV1^+ and virus levels by LRV1 capsid flow cytometry.
Most studies were performed using luciferase-expressing transfectants of L. guyanensis (MHOM/BR/78/M4147) described previously [LRV1^+ LgyM4147/SSU:IR2SAT-LUC(b)c3 and LRV^−LgyM4147/pX63HYG/SSU:IR2SAT-LUC(b)c4] (54); these lines are termed LgyLRV1^+ and LgyLRV1^−, respectively. Two strains of LRV1^+L. braziliensis were examined: LEM2780 (MHOM/BO/90/CS) and LEM3874 (MHOM/BO/99/IMT252 no. 3) (12). Parasites were grown in Schneider's media (Sigma Aldrich, St. Louis, Mo., USA) prepared according to the supplier's instructions with pH adjusted to 6.5 and supplemented with 0.76 mM hemin, 2 μg/mL biopterin, 50 U/mL penicillin, 50 μg/mL streptomycin, and 10% (vol/vol) heat-inactivated FBS. Cell concentrations were determined using a Coulter Counter ([…], Indianapolis, Ind., USA).
(§1) Parasites were inoculated at 2×10^5 cells/mL into Schneider's media lacking supplemental adenine.

[1] = system: LRV1 (LgyLRV1 capsid levels); assay: microbe, parasite or virus in culture; conditions: for Effect on LRV1 (capsid) levels, in words: screen at 100 μM or maximum concentration permitted by solubility
Source text: Because LRV1 (like most Totiviridae) is not shed from the cell (33, 34), we developed a flow cytometric assay to measure intracellular LRV1 capsid levels on a per cell basis. To detect LRV1 we used binding to a rabbit anti-LgyLRV1 capsid antiserum (35) followed by detection with Alexa Fluor488-conjugated goat anti-rabbit IgG.
as §1
For capsid flow cytometry, 10^7 cells were fixed at room temperature using 2% (wt/vol) paraformaldehyde (Thermo Fisher Scientific) in PBS for 2 minutes. They were then incubated in blocking buffer [10% (vol/vol) normal goat serum (Vector Laboratories, Burlingame, Calif., USA) and 0.2% TRITON X-100 in PBS] for 30 minutes at room temperature. Anti-LgyLRV1 capsid antibody (35) was added (1:20,000 dilution) and incubated at room temperature for 1 hour. After two washes with PBS, cells were resuspended in 200 μL PBS with Alexa Fluor488-labeled goat anti-rabbit IgG (Alexafluor, Invitrogen; 1:1,000; or Thermo Fisher Scientific; 1:2,000 dilution), and incubated 1 hour at room temperature. After two additional washes with PBS, cells were subjected to flow cytometry, gating for single cells using forward and side scatter and the data analyzed using […] software (BD Bioscience, San Jose, Calif., USA).

[2] = Leishmania guyanensis, 48 h, LgyLRV1+, tested at 100 μM, growth after 2 days, read-out: Percent control (density)
[3] = LgyLRV1+, tested at 100 μM, growth after 2 days
[4] = 48 h, read-out: Percent control (LRV1 capsid)
[5] = LgyLRV1+, tested at 100 μM, 2 days
[6] = Leishmania guyanensis, 48 h, LgyLRV1+, tested at 40 μM, growth after 2 days, read-out: Percent control (density)
[7] = LgyLRV1+, tested at 40 μM, growth after 2 days
[8] = LgyLRV1+, tested at 40 μM, 2 days
[9] = LgyLRV1+, tested at 50 μM, growth after 2 days

Question: For `Nc1nc2c(ncn2[C@@H]2O[C@H](CO)[C@@H](O)[C@H]2F)c(=O)[nH]1` [2′-fluoro-2′-deoxyguanosine, 2′-Fluoro-2′-deoxyguanosine], which activity at 100 µM (L. guyanensis (LgyLRV1+); [2]) is on record?
Answer: Its activity at 100 µM is 100%.

Question: And the “Density (cells/mL)” value (L. guyanensis (LgyLRV1+); [3])?
Answer: The value was 1.68E+7 cells/mL.

Question: What about the activity at 100 µM [1, 4] of the same molecule?
Answer: The activity at 100 µM was 123%.

Question: And the “LRV1 capsid (geometric mean FU)” value [1, 5]?
Answer: The value was 326 FU.

Question: Which results are given for `CC(C)OC(=O)[C@H](C)N[P@](=O)(OC[C@H]1O[C@@H](n2ccc(=O)[nH]c2=O)[C@](C)(F)[C@@H]1O)Oc1ccccc1` [PSI-7977, 2-((5-(2,4-dioxo-3,4-dihydro-2H-pyrimidin-1-yl)-4-fluoro-3-hydroxy-4-methyltetrahydrofuranyl-2-methoxy)phenoxyphosphorylamino) propionic acid isopropyl ester]?
Answer: activity at 100 µM (L. guyanensis (LgyLRV1+); [2]): 74%; Density (cells/mL) (L. guyanensis (LgyLRV1+); [3]): 1.25E+7 cells/mL; activity at 100 µM [1, 4]: 61%; LRV1 capsid (geometric mean FU) [1, 5]: 163 FU; Effect on LRV1 (capsid) levels, in words ([1]; 2 days): little effect on LRV1

Question: `NC(=O)c1nc(F)c[nH]c1=O` [Compound T-705, Favipiravir] was tested. Which activity at 100 µM (L. guyanensis (LgyLRV1+); [2]) did it give?
Answer: The activity at 100 µM was 67%.

Question: What about the “Density (cells/mL)” value (L. guyanensis (LgyLRV1+); [3]) of the same molecule?
Answer: Its value is 1.13E+7 cells/mL.

Question: What about the activity at 100 µM [1, 4] of the same molecule?
Answer: Its activity at 100 µM is 60%.

Question: What about the “LRV1 capsid (geometric mean FU)” value [1, 5] of the same molecule?
Answer: The value was 161 FU.

Question: `CCOC(=O)[C@H]1O[C@@H]1C(=O)N[C@@H](CC(C)C)C(=O)NCCC(C)C` [e64d, E64-d] was tested. Which activity at 10 µM (L. guyanensis (LgyLRV1+); Leishmania guyanensis, 48 h, LgyLRV1+, tested at 10 μM, growth after 2 days, read-out: Percent control (density)) did it give?
Answer: The activity at 10 µM was 90%.

Question: And the “Density (cells/mL)” value (L. guyanensis (LgyLRV1+); LgyLRV1+, tested at 10 μM, growth after 2 days)?
Answer: The value was 1.52E+07 cells/mL.

Question: What about the activity at 10 µM [1, 4] of the same molecule?
Answer: Its activity at 10 µM is 37%.

Question: What about the “LRV1 capsid (geometric mean FU)” value ([1]; LgyLRV1+, tested at 10 μM, 2 days) of the same molecule?
Answer: The value was 97 FU.

Question: For 3′-Hydroxyethyl cyclobutyl adenine, which “Density (cells/mL)” value (L. guyanensis (LgyLRV1+); [3]) is on record?
Answer: The value was 1.82E+7 cells/mL.

Question: What about the “Percent control (density)” value (L. guyanensis (LgyLRV1+); [3]) of the same molecule?
Answer: Its value is 108 Percent control.

Question: And the “LRV1 capsid (geometric mean FU)” value [1, 5]?
Answer: The value was 290 FU.

Question: And the “Percent control (LRV1 capsid)” value [1, 5]?
Answer: Its value is 109 Percent control.

Question: What does the source list for `C[C@H]1O[C@@H](n2cc(F)c(=O)[nH]c2=O)[C@H](O)[C@@H]1O` [5-Fluoro-5′-deoxyuridine]?
Answer: activity at 100 µM (L. guyanensis (LgyLRV1+); [2]): 28%; Density (cells/mL) (L. guyanensis (LgyLRV1+); [3]): 4.71E+6 cells/mL; activity at 100 µM [1, 4]: 88%; LRV1 capsid (geometric mean FU) [1, 5]: 234 FU

Question: Which “Density (cells/mL)” value (L. guyanensis (LgyLRV1+); [3]) does the source give for `C[C@@]1(O)[C@H](O)[C@@H](CO)O[C@H]1n1cnc2c(=O)[nH]c(N)nc21` [2′C-Methyguanosine, 2′C-Methyl guanosine] here?
Answer: The value was 2.25E+7 cells/mL.

Question: What about the “Percent control (density)” value (L. guyanensis (LgyLRV1+); [3]) of the same molecule?
Answer: Its value is 133 Percent control.

Question: And the “Effect on L. guyanensis growth, in words” value (L. guyanensis (LgyLRV1+))?
Answer: The value was “little effect”.

Question: And the “LRV1 capsid (geometric mean FU)” value [1, 5]?
Answer: The value was 252 FU.

Question: And the “Percent control (LRV1 capsid)” value [1, 5]?
Answer: The value was 95 Percent control.

Question: And the “Effect on LRV1 (capsid) levels, in words” value ([1]; 2 days)?
Answer: Its value is “little effect”.

Question: Which “Density (cells/mL)” value (L. guyanensis (LgyLRV1+)) does the source give for `O=c1nc[nH]c(=O)[nH]1` [Compound 5-Azauracil, 5-Azauracil] here?
Answer: Its value is 1.13E+7 cells/mL.

Question: What about the activity at 100 µM (L. guyanensis (LgyLRV1+); Leishmania guyanensis, 48 h, read-out: Percent control (density)) of the same molecule?
Answer: Its activity at 100 µM is 67%.

Question: What about the “LRV1 capsid (geometric mean FU)” value [1] of the same molecule?
Answer: Its value is 252 FU.

Question: And the activity at 100 µM [1, 4]?
Answer: The activity at 100 µM was 95%.

Question: Which activity at 100 µM (L. guyanensis (LgyLRV1+); [2]) does the source give for `O=c1[nH]cc(F)c(=O)[nH]1` [5-Fluorouracil] here?
Answer: The activity at 100 µM was 5%.

Question: And the “Density (cells/mL)” value (L. guyanensis (LgyLRV1+); [3])?
Answer: Its value is 9.05E+5 cells/mL.

Question: And the “LRV1 capsid (geometric mean FU)” value [1]?
Answer: Its value is 512 FU.

Question: What about the activity at 100 µM [1, 4] of the same molecule?
Answer: The activity at 100 µM was 193%.

Question: What does the source list for `Nc1nc2nn[nH]c2c(=O)[nH]1` [Compound 8-Azaguanine, 8-Azaguanine]?
Answer: activity at 100 µM (L. guyanensis (LgyLRV1+); [2]): 34%; Density (cells/mL) (L. guyanensis (LgyLRV1+); [3]): 5.68E+6 cells/mL; LRV1 capsid (geometric mean FU) [1]: 264 FU; activity at 100 µM [1, 4]: 100%

Question: How did the activity at 40 µM (L. guyanensis (LgyLRV1+); [6]) turn out when `Nc1nc(O)c2ncn(COC(CO)CO)c2n1` [Ganciclovir] was run?
Answer: The activity at 40 µM was 58%.

Question: And the “Density (cells/mL)” value (L. guyanensis (LgyLRV1+); [7])?
Answer: Its value is 9.78E+6 cells/mL.

Question: And the activity at 40 µM [1, 4]?
Answer: The activity at 40 µM was 75%.

Question: What about the “LRV1 capsid (geometric mean FU)” value [1, 8] of the same molecule?
Answer: The value was 198 FU.

Question: Which “Inhibition of LRV1 levels, in words” value ([1]; concentrations up to 100 μM, data not shown) does the source give for `Nc1ncnc2c(CN3C[C@H](CO)[C@@H](O)C3)c[nH]c12` [DADMe-Immucillin A] here?
Answer: Its value is “no inhibition of LRV1 levels”.

Question: `CC(C)C[C@H](NC(=O)[C@H]1O[C@@H]1C(=O)O)C(=O)NCCCCN=C(N)N` [e64, E-64] was tested. Which “Density (cells/mL)” value (L. guyanensis (LgyLRV1+); [9]) did it give?
Answer: Its value is 1.80E+07 cells/mL.

Question: And the “Percent control (density)” value (L. guyanensis (LgyLRV1+); [9])?
Answer: Its value is 107 Percent control.

Question: What about the “Effect on L. guyanensis growth, in words” value (L. guyanensis (LgyLRV1+)) of the same molecule?
Answer: Its value is “no effects”.

Question: What about the “LRV1 capsid (geometric mean FU)” value [1] of the same molecule?
Answer: Its value is 153 FU.

Question: What about the “Percent control (LRV1 capsid)” value ([1]; LgyLRV1+, tested at 50 μM, 2 days) of the same molecule?
Answer: The value was 58 Percent control.

Question: What about the “Effect on LRV1 (capsid) levels, in words” value ([1]; 2 days) of the same molecule?
Answer: The value was “only minimal effects”.

Question: What does the source list for `Nc1ccn(C[C@@H](CO)OCP(=O)(O)O)c(=O)n1` [Cidofovir]?
Answer: activity at 40 µM (L. guyanensis (LgyLRV1+); [6]): 59%; Density (cells/mL) (L. guyanensis (LgyLRV1+); [7]): 9.99E+6 cells/mL; activity at 40 µM [1, 4]: 240%; LRV1 capsid (geometric mean FU) [1, 8]: 637 FU
